Paper PMC5473904, “Epigenetic and antitumor effects of platinum(IV)-octanoato conjugates” (Scientific Reports, 2017)

System: A2780 cells
Test: Pt accumulation in A2780 cells with and without serum, BSA or lipoproteins
Format: cell-based, human
Conditions: A2780, 10 μM, 4 h
Description: Interactions with serum proteins
The trends observed in the results of the in vivo antitumor activity experiments, such as the tissue biodistribution (Fig. S2A), blood levels (Fig. S2B), and cellular accumulation (Table 2) of Pt(IV) complexes could be also related to their sequestration by plasma proteins, mainly by 8 human serum albumin . Thus, the accumulation experiments in cellulo were carried out employing A2780 cells without serum (and therefore without BSA) in the culture medium. As shown in Fig. S3, when passing from the treatment in complete medium (+FBS) to the […]
Supplementary Figure S3: Pt accumulation in A2780 cells treated with Pt(IV) prodrugs […]
treatment in complete medium (+FBS) and in serum-free medium (- FBS). Data are means of at least three replicates and were tested using the two sample t-test (***p<0.001). […]
medium supplemented with 10% FBS contains 30 µM BSA, which is known to transport octanoate9,10, and 300 μg mL-1 cholesterol in the most lipophilic component, i.e. lipoproteins11, which are known to transport lipophilic drugs12,13. To verify whether the accumulation of Pt(IV)diOA could be mainly affected by BSA or lipoproteins, the experiments were repeated in serum-free medium supplemented with BSA (-FBS, + BSA) or LPC, lipoprotein-rich cholesterol (-FBS + LPC), respectively (see experimental part). As […]
(1 picture or pasted object on this page, not shown here)
(control, -FBS), in serum-free medium supplemented with 30 µM BSA (-FBS, + BSA), with lipoproteins (-FBS + LPC), and in complete medium (+FBS). Data are means of at least three replicates and were tested using the two sample t-test (***p<0.001). […]
Co.) and transferred into a microwave Teflon vessel. Subsequently, samples were submitted to the standard procedure using a speed microwave. After cooling, each mineralized sample was analyzed for platinum by ICP-MS (ThermoOptek X Series 2). Instrumental settings were optimized to achieve maximum sensitivity for platinum. For quantitative determination, the most abundant isotopes of platinum and indium (used as internal standard) were measured at m/z 195 and 115, respectively.
Accumulation of platinum in tumor cells treated with Pt(IV) complexes and cisplatin (in cellulo experiments) in the absence of serum. A2780 cells were seeded in 10 mm Petri dishes and treated with the platinum complexes (10 μM) for 4 h in complete medium, i.e. + 10 % FBS (HyClone, GE Healthcare). At time zero, 100 μL of medium was taken out from each sample to check the extracellular Pt concentration. […]
The level of Pt found in cells after drug treatment and normalized 6 upon the cell number (cellular Pt accumulation) was expressed as ng Pt per 10 cells. […]

| SMILES | Change of Pt accumulation from complete medium (+FBS) to serum-free medium (-FBS) | Effect of BSA addition to serum-free medium on Pt accumulation (-FBS + BSA) | Effect of LPC (lipoprotein-rich cholesterol) supplementation of serum-free medium on Pt accumulation (-FBS + LPC) |
| --- | --- | --- | --- |
| CCCCCCCC(=O)[O][Pt]([NH2])([NH2])([Cl])([Cl])[O]C(=O)CCCCCCC [Pt(IV)diOA, cis, cis, trans-[Pt(IV)(NH3)2Cl2(OA)2]] | 3 fold | negligible effect | decreased Pt accumulation |
| CCCC(CCC)C(=O)[O][Pt]([NH2])([NH2])([Cl])([Cl])[O]C(=O)C(CCC)CCC [Pt(IV)diVPA, cis, cis, trans-[Pt(IV)(NH3)2Cl2(VPA)2]] | no significant change |  |  |
